Measurements from patent publication US20110044991A1, “METHODS AND COMPOSITIONS FOR TREATING LYMPHOMA AND MYELOMA” (IRM LLC, priority 2006, published 2011).

Legend:
lymphoma cells (Ly9) = test system: lymphoma cells (Ly9)
Method: D: injection of 1 Mio luciferased lymphoma cells in C57B16 mice.
Immunohistochemistry: Single colour DAB-immunoperoxidase staining was performed as described. Antibodies were obtained from Santa Cruz Biotechnologies (for Shh antibody, N-19), NeoMarkers (for Ki67 antibody) and Promega (for PARP antibody).
Mouse experiments: Black6 mice between 6 and 8 weeks of age were injected with 1 Mio luciferased lymphoma cells. […] Bioluminescence was measured with injection of […].
We next wished to determine the importance of Hh signalling in established lymphomas.

Eμ-Myc lymphoma cells = assay: Luciferase assay and light microscopy of luciferased lymphoma cells on stromal layer; format: cell-based, mouse; conditions: for Response rate to cyclopamine treatment (responsive/tested cultures) / Response rate to cyclopamine treatment: Myc-lymphomas; for Response rate to cyclopamine treatment: >80% growth inhibition at 5 μM
Method: (§1) For Shh pathway inhibition on stroma, 6200 stroma cells were seeded per 96-well. After 24 hours 20,000 luciferased lymphoma cells were seeded on the stroma cells and 2 hours later compound or DMSO was added. Luciferase assay was performed with Bright-glow reagent as described. To generate cells overexpressing Hh pathway members, lymphoma cells were infected with Smo, Smo 535, Smo 562, Gli1 and Fused-pMSCV IRES GFP constructs and then sorted for GFP positive cells.
(§2) In order to investigate whether the Hh signalling pathway does indeed contribute to the survival and proliferation of lymphoma cells growing on an intact stromal layer, lymphoma cells were luciferased using a retrovirus expressing a puromycin/Luc fusion cassette. 2×10E4 lymphoma cells constitutively expressing luciferase were added to each 96-well containing a stromal layer (not expressing luciferase) isolated from Cdkn2a^−/− mice. A total of 34 individual Eμ-Myc-lymphomas and 8 Cdkn2a-lymphomas were tested. A luciferase assay was performed as a readout for cell viability and proliferation and results were also documented by light microscopy.

Cdkn2a−/− lymphoma cells = assay: Luciferase assay of luciferased lymphoma cells on stromal layer; format: cell-based, mouse; conditions: for Response rate to cyclopamine treatment (responsive/tested cultures) / Response rate to cyclopamine treatment: Ink4a/Arf-/- lymphomas; for Response rate to cyclopamine treatment: >80% growth inhibition at 5 μM
Method: as §1, §2

[1] = 50 mg/kg twice a day for 3 days, vs control group

## CC1=C2C[C@H]3[C@@H](CC=C4C[C@@H](O)CC[C@@]43C)[C@@H]2CC[C@]12O[C@@H]1C[C@H](C)CN[C@H]1[C@H]2C [cyclopamine]
Lymphoma cells (Ly9); [1]
  infiltration of the spleen: markedly decreased
  lymphoma mass in lymph nodes and other organs: reduced lymphoma mass
Lymphoma cells (Ly9); after 3 days of treatment
  PARP staining of spleen: apoptosis induction
  histopathology of spleens (H&E): reduction of lymphoma cells in the spleen
Lymphoma cells (Ly9); after 3 days of treatment, compared to vehicle group
  Ki67 staining of spleen: strong decrease of high proliferative cells
Lymphoma cells (Ly9); three-day treatment, compared to vehicle control group
  decrease of spleen weight: ~50%
Eμ-Myc lymphoma cells; Mus musculus, 48 h, read-out: IC50 (concentration needed for 50% of maximal inhibition)
  IC50: 500 to 2000 nM
Eμ-Myc lymphoma cells; Myc-Ly4, 5 μM, within 48 h
  clearance of lymphoma cells from the stromal layer: complete clearance
Eμ-Myc lymphoma cells; B-cell lymphoma
  Response rate to cyclopamine treatment (responsive/tested cultures): 8/10 and (8/10)
Eμ-Myc lymphoma cells; mixed lymphomas
  Response rate to cyclopamine treatment (responsive/tested cultures): 1/2
  Response rate to cyclopamine treatment: 50%
Eμ-Myc lymphoma cells; plasmacytoma
  Response rate to cyclopamine treatment (responsive/tested cultures): 6/9
  Response rate to cyclopamine treatment: 66%
Eμ-Myc lymphoma cells; plasmoblastoma
  Response rate to cyclopamine treatment (responsive/tested cultures): 8/10 and (8/10)
  Response rate to cyclopamine treatment: 80%
Eμ-Myc lymphoma cells; all Eμ-Myc-lymphomas, sensitivity = greater than 80% growth inhibition at 5 μM
  lymphomas sensitive to Hh pathway inhibition: 74.1%
Cdkn2a−/− lymphoma cells; plasmacytoma
  Response rate to cyclopamine treatment (responsive/tested cultures): (2/4)
  Response rate to cyclopamine treatment: 50%
Cdkn2a−/− lymphoma cells; plasmoblastoma
  Response rate to cyclopamine treatment (responsive/tested cultures): (2/4)
  Response rate to cyclopamine treatment: 50%
Cdkn2a−/− lymphoma cells; all lymphomas from CDKN2a−/− mice, sensitivity = greater than 80% growth inhibition at 5 μM
  lymphomas sensitive to Hh pathway inhibition: 50%
